“And” between values parts separate entries of the source, which are not always exact repeats. Equal entries are not always repeated. “Also recorded” adds a separate entry of the source. Where two headings read alike, the source gives them in different places.
What was measured:
[1] = system: patients with advanced STS; assay: Randomized Phase 2 Study of doxorubicin with or without olaratumab (NCT01185964): PFS, OS, ORR; format: in vivo, human; conditions: for median OS / median PFS: Phase 2 Study
Experimental: The Study is an open-label, multicenter, Phase 2 trial in which patients with advanced STS not amenable to treatment with surgery or radiotherapy are treated with olaratumab in combination with doxorubicin or doxorubicin alone.
Enrolled patients who meet all eligibility criteria are randomized 1:1 to one of two treatment arms. Arm A or Arm B. Arm A patients receive olaratumab in combination with doxorubicin (hereinafter the “Combination Arm”) and Ann B patients receive doxorubicin alone (hereinafter the “Doxonthicin Arm”), Randomization of this Study is performed according to a dynamic randomization algorithm using 4 pre-defined risk factors: PDGFRα expression (positive vs. negative), number of previous lines of treatment (0 vs. 1+ lines), histological tumor type (i.e., leiomyosarcoma vs. synovial sarcoma vs. other tumor type), and ECOG performance status (0-1 vs. 2). This dynamic randomization procedure is used to minimize imbalance between treatment groups. To determine tumor type and PDGFRCL expression in patients, a tumor sample from either a biopsy or previously archived tumor tissue sample is sufficient. Biopsy is required to be performed within 21 days prior to randomization; archived tissue sample must also be available within this timeframe.
Combination Arm: 66 patients randomized in the Combination Ann receive 15 mg/kg of olaratumab on Days 1 and 8 of each 21-day treatment cycle, in combination with 75 mg/m^2 doxorubicin administered on Day 1 of each cycle. (Note: if premedication is required prior to the first doxorubicin infusion, this is to be done after the completion of olaratumab infusion, not before the olaratumab infusion. This premedication may be administered within the hour that follows completion of the olaratumab infusion.) The actual (not planned) administration of each doxorubicin infusion defines Day 1 of each 21-day treatment cycle. The combination treatment just described is to continue for up to 8 cycles at the investigator's discretion. During Cycles 5 through 8, patients being treated with doxorubicin may also be administered 750 mg/m^2 dexrazoxane on Day 1 of each cycle, (at the investigator's discretion) prior to doxorubicin on Day 1 of each 21-day cycle. If the dose of doxorubicin is reduced at any point in the Study, the dose of dexrazoxane is to be reduced accordingly, maintaining a dosage ratio of 10:1. For example, if doxorubicin is reduced to 60 mg/m^2, then dexrazoxane is to be reduced to 600 mg/m^2. Doxorubicin may be administered within the hour that follows completion of the olaratumab infusion. In the absence of PD or other withdrawal criteria, patients in the Combination Arm who have completed eight cycles of therapy are to receive subsequent olaratumab monotherapy, administered on Days 1 and 8 of each 21-day cycle. Furthermore, if doxorubicin is discontinued (e.g., for reasons of toxicity) prior to end of cycle 8 and in the absence of withdrawal criteria, patients may continue to receive olaratumab monotherapy. For patients who discontinue olaratumab during the first 8 cycles of treatment, doxorubicin may be continued (for up to 8 cycles), provided no withdrawal criteria are met.
Doxorubicin Arm: 67 patients randomized in the Doxorubicin Arm receive 75 mg/m^2 doxorubicin on Day 1 of each cycle, for up to 8 cycles at the investigator's discretion. The actual (not planned) administration of each doxorubicin infusion defines Day 1 of each 21-day treatment cycle. During cycles 5 through 8, 750 mg/m^2 dexrazoxane may also be administered on Day 1 of each cycle, (at the investigator's discretion) prior to doxorubicin on Day 1 of each 21-day cycle. If the dose of doxorubicin is reduced at any point in the Study, the dose of dexrazoxane is to be reduced accordingly, maintaining a dosage ratio of 10:1. For example, if doxorubicin is reduced to 60 mg/m^2, then dexrazoxane is to be reduced to 600 mg/m^2. […]

[2] = system: patients with advanced STS; assay: Matched case-control exposure-response analysis of OS and PFS across quartiles of olaratumab serum levels; format: in vivo, human
Experimental: (§1) Pharmacokinetics and Exposure-response Analysis of The “Study”: The PFS, OS, PK and safety data from patients who received olaratumab in the Study, as discussed above, were analyzed.
(§2) The effect of olaratumab serum levels is explored using average serum concentration (Cavg) and trough serum concentration after cycle 1 (Cmin1). The PFS and OS data are analyzed using a matched case-control (MCC) analysis across quartiles of olaratumab serum levels and a time-to-event (survival) model with a constant baseline hazard and a Hill function to describe the effect of olaratumab. The rate of treatment-emergent adverse events (TEAEs) is compared across quartiles of olaratumab exposure.

[3] = design: species or system human; conditions: in vivo
Description: The rate of treatment-emergent adverse events (TEAEs) is compared across quartiles of olaratumab exposure.

[4] = system: patients with advanced STS; assay: Time-to-event (survival) model of the effect of olaratumab serum levels on PFS/OS hazard; format: in vivo, human; conditions: Cmin1-based and Cavg-based models
Description: Further, FIG. 1, illustrates the predicted effect of olaratumab on HR for PFS. In FIG. 1. PFS as predicted by Cmin1-based model is shown in the left panel and the Cavg-based model is shown in the right panel. The solid red lines describe the change in HR as a function of Cmin1 and Cavg; the grey histograms describe the distribution of olaratumab Cmin1 and Cavg in the Study experimental arm together with their quartiles (dashed blue lines) the green dashed lines indicate ECmin150 and ECavg50.

[5] = Population PK (PopPK) model using PK data from 4 Phase 2 studies; format: in vivo, human; conditions: irrespective of indication
Description: • Population Pharmacokinetics Analysis of the Four Phase 2 Clinical Studies: A population PK (PopPK) model was developed using PK data from 4 Phase 2 studies (www.clinicaltrials.gov study numbers NCT00918203 (A Randomized Phase 2 Study of Human Anti-PDGFRα. Monoclonal Antibody (IMC-3G3) With Paclitaxel/Carboplatin or Paclitaxel/Carboplatin Alone in Previously Untreated Patients With Locally Advanced or Metastatic Non-Small Cell Lung Cancer), NCT01185964 (A Phase 1b/2 Randomized Phase 2 Study Evaluating the Efficacy of Doxorubicin With or Without a Human Anti-PDGFRα Monoclonal Antibody (IMC-3G3) in the Treatment of Advanced Soft Tissue Sarcoma), NCT00895180 (An Open Label, Phase 2 Study Evaluating the Safety and Efficacy of IMC-3G3 or MC-1121B in Patients With Recurrent Glioblastoma Multiforme), and NCT01316263 (A Phase 2 Study of a Human Anti-PDGFRα Monoclonal Antibody (IMC-3G3) in Previously Treated Patients With Unresectable and/or Metastatic Gastrointestinal Stromal Tumors (GIST)). […] A Randomized, Double Blind, Placebo-Controlled, Phase 3 Trial of Doxorubicin Plus Olaratumab Versus Doxorubicin Plus Placebo in Patients With Advanced Soft Tissue Sarcoma (the “Phase 3 Study”) The present invention is being further tested in the Phase 3 Study (trial number NCT02451943 available on clinicaltrials.gov https://clinicaltrials.gov/ct2/show/NCT02451943?term=ANNOUNCE&rank=1).

[6] = Olaratumab serum concentrations (pharmacokinetics) in the Study
Experimental: Serum levels can be measured by an enzyme-linked immunosorbent assay; a test that uses antibodies and color change to identify and quantify a substance.
as §1, §2

[7] = Cavg Q1 (56 < 134.4) μg/mL, 15 patients per group
[8] = Cavg Q3 (≥175.2-<249.9) μg/mL, 15 patients per group
[9] = Cavg Q4 (≥249.9-347.3) μg/mL, 16 patients per group
[10] = Cmin1 Q1 (12.3-<62.8) μg/mL, 15 patients per group
[11] = Cmin1 Q2 (≥62.8-<86.9) μg/mL, 16 patients per group
[12] = Cmin1 Q4 (≥105.6-188.1) μg/mL, 16 patients per group

COc1cccc2c1C(=O)c1c(O)c3c(c(O)c1C2=O)C[C@@](O)(C(=O)CO)C[C@@H]3O[C@H]1C[C@H](N)[C@H](O)[C@H](C)O1 [doxorubicin]
median OS ([1]; final analysis): 14.7 months | median PFS ([1]; final analysis): 4.1 months | median progression-free survival, blinded independent retrospective review ([1]; in vivo): 4.4 months | objective response rate, independent assessment ([1]; in vivo): 7.5% | objective response rate ([1]; investigator assessment, RECIST 1.1): 11.9% | Number of events, overall survival [2, 7]: 15/13 | Number of events, progression-free survival [2, 7]: 15/14 | Number of events, progression-free survival ([2]; Cavg Q2 (≥134.4-<175,2) μg/mL, 16 patients per group): 16/10 | Number of events, overall survival ([2]; Cavg Q2 (≥134.4-<175.2) μg/mL, 16 patients per group): 16/14 | Number of events, overall survival [2, 8]: 15/7 | Number of events, progression-free survival [2, 8]: 15/8 | Number of events, overall survival [2, 9]: 16/11 | Number of events, progression-free survival [2, 9]: 16/12 | Number of events, overall survival [2, 10]: 15/12 | Number of events, progression-free survival [2, 10]: 15/11 | Number of events, overall survival [2, 11]: 16/13 | Number of events, progression-free survival [2, 11]: 16/9 | Number of events, overall survival ([2]; Cmin1 Q3 (≥86.9-<105.6) μg/mL, 15 patients per group): 15/8 | Number of events, progression-free survival ([2]; Cmin1 Q3 (≥86.9=<105.6) μg/mL, 15 patients per group): 15/10 | Number of events, overall survival [2, 12]: 16/10 | Number of events, progression-free survival [2, 12]: 16/11 | Mucositis Grade <=2 (consolidated TEAE), number of patients ([3]; human): 20 | Mucositis Grade <=2, % (consolidated TEAE) ([3]; human): (30.8) % | Mucositis Grade >2 (consolidated TEAE), number of patients ([3]; human): 3 | Mucositis Grade >2, % (consolidated TEAE) ([3]; human): (4.6) % | Mucositis Grade >=4 (consolidated TEAE), number of patients ([3]; human): 0 | Neutropenia Grade <=2 (consolidated TEAE), number of patients ([3]; human): 3 | Neutropenia Grade <=2, % (consolidated TEAE) ([3]; human): (4.6) % | Neutropenia Grade >2 (consolidated TEAE), number of patients ([3]; human): 22 | Neutropenia Grade >2, % (consolidated TEAE) ([3]; human): (33.8) % | Neutropenia Grade >=4 (consolidated TEAE), number of patients ([3]; human): 17 | Neutropenia Grade >=4, % (consolidated TEAE) ([3]; human): (26.2) % | TEAE Overall Grade <=2, % ([3]; human): (29.2) % | TEAE Overall Grade <=2, number of patients ([3]; human): 19 | TEAE Overall Grade >2, % ([3]; human): (69.2) % | TEAE Overall Grade >2, number of patients ([3]; human): 45 | TEAE Overall Grade >=4, % ([3]; human): (30.8) % | TEAE Overall Grade >=4, number of patients ([3]; human): 20

olaratumab
stratified HR for overall survival ([1]; Combination Arm vs Doxorubicin Arm, final analysis): 0.46 | median OS ([1]; final analysis): 26.5 months | median PFS ([1]; final analysis): 6.6 months | stratified HR for progression-free survival ([1]; olaratumab plus doxorubicin vs doxorubicin, final analysis): 0.672 | OS improvement in the lowest exposure quartile ([2]; Cmin1<63 μg/mL, N=15): no improvement in OS; also recorded: did not show OS improvement; also recorded: did not have OS | PFS and OS improvement in the upper quartiles of olaratumab serum exposure ([2]; regardless of Cmin at end of cycle 1 or average serum concentration): greater improvement in progression-free survival and overall survival | predicted effect of olaratumab on HR for PFS (FIG. 1) [4]: not predicted to change until the Cmin1 or Cavg reaches values corresponding to the 25th percentile of their distribution in the study | Mucositis Grade <=2 (consolidated TEAE), number of patients [3]: 32 | Mucositis Grade <=2, % (consolidated TEAE) [3]: (51.6) % | Mucositis Grade >2 (consolidated TEAE), number of patients [3]: 2 | Mucositis Grade >2, % (consolidated TEAE) [3]: (3.2) % | Mucositis Grade >=4 (consolidated TEAE), number of patients [3]: 0 | Neutropenia Grade <=2 (consolidated TEAE), number of patients [3]: 3 | Neutropenia Grade <=2, % (consolidated TEAE) [3]: (4.8) % | Neutropenia Grade >2 (consolidated TEAE), number of patients [3]: 35 | Neutropenia Grade >2, % (consolidated TEAE) [3]: (56.5) % | Neutropenia Grade >=4 (consolidated TEAE), number of patients [3]: 23 | Neutropenia Grade >=4, % (consolidated TEAE) [3]: (37.1) % | TEAE Overall Grade <=2, % [3]: (19.4) % | TEAE Overall Grade <=2, number of patients [3]: 12 | TEAE Overall Grade >2, % [3]: (79.0) % | TEAE Overall Grade >2, number of patients [3]: 49 | TEAE Overall Grade >=4, % [3]: (40.3) % | TEAE Overall Grade >=4, number of patients [3]: 25 | cycle in which steady-state olaratumab serum levels are achieved (PopPK model) [5]: ≥ 3 Cycle | mean maximum serum concentration (Cmax) after the first dose ([6]; 15 mg/kg, cycle 1): 284 µg/mL | mean maximum serum concentration (Cmax) after the second dose ([6]; 15 mg/kg, cycle 1): 293 µg/mL | Cavg range ([6]; Overall, n = 62, average over entire treatment): 56.0 to 347.3 µg/mL | Cmin1 range ([6]; Overall, n = 62, trough at the end of Cycle 1): 12.3 to 188.1 µg/mL | mean trough serum concentration (Cmin) at the end of the cycle ([6]; cycle 1): 66.5 µg/mL | individual apparent terminal elimination half-life ([6]; during cycle 3): 6.67 days and 14.4 days | cycle in which steady state is reached ([6]; in vivo): 3 cycle
